In brackets after ≈: the same amount, converted by molar mass.

The first assay relates to K562/ADR (K562adr, drug-resistant chronic myeloid leukemia) cells. Put plainly: MTT cell growth inhibition, leukemia cells. The conditions noted are these: Homo sapiens; K562/ADR, 72 h, MTT; read-out: IC50. The assay is classed as cell-based. In outline: (§1)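 Growth inhibition is assessed by MTT after leukemia cells, plated at 6000 per well in RPMI-1640 containing 10% fetal bovine serum, are exposed for 72 hours to graded compound concentrations added the day after plating.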
Broadly, the IC50 is the concentration that inhibits the measured activity by half. With `COc1ccc2cc1Oc1ccc(cc1)C[C@H]1c3cc(c(OC)cc3CCN1C)Oc1c(OCC(O)CN3CCCC(C)C3)c(OC)cc3c1[C@H](C2)N(C)CC3` (stereo partly shown) [BS-FC-410], the IC50 is 0.05 µg/mL (≈ 0.0654 µM).

Still in this assay, the particulars now being: Homo sapiens; K562/ADR, 72 h, MTT; read-out: IC90.
A word on the IC90: it is the concentration needed for an effect of 90%. With `COc1ccc2cc1Oc1ccc(cc1)C[C@H]1c3cc(c(OC)cc3CCN1C)Oc1c(OCC(O)CN3CCCC(C)C3)c(OC)cc3c1[C@H](C2)N(C)CC3` (stereo partly shown) [BS-FC-410], the IC90 was 0.63 µg/mL (≈ 0.825 µM).

In a further assay the test system is NB4 (acute promyelocytic leukemia) cells. Put plainly: MTT cell growth inhibition, leukemia cells. In kind it is cell-based. The conditions noted are these: Homo sapiens; NB4, 72 h, MTT; read-out: IC50. In outline:
as §1
For `COc1ccc2cc1Oc1ccc(cc1)C[C@H]1c3cc(c(OC)cc3CCN1C)Oc1c(OCC(O)CN3CCCC(C)C3)c(OC)cc3c1[C@H](C2)N(C)CC3` (stereo partly shown) [BS-FC-410], the concentration for half-maximal inhibition (IC50) turned out to be 0.28 µg/mL (≈ 0.367 µM).

The assay is the same for the next values; noted with them: Homo sapiens; NB4, 72 h, MTT; read-out: IC90.
For `COc1ccc2cc1Oc1ccc(cc1)C[C@H]1c3cc(c(OC)cc3CCN1C)Oc1c(OCC(O)CN3CCCC(C)C3)c(OC)cc3c1[C@H](C2)N(C)CC3` (stereo partly shown) [BS-FC-410], the 90% effect concentration (IC90) worked out at 0.91 µg/mL (≈ 1.19 µM).

The test system of the next assay is H9 (acute lymphoblastic leukemia) cells. Nature of the assay: MTT cell growth inhibition, leukemia cells. In kind it is cell-based, human. The conditions noted are these: Homo sapiens; H9, 72 h, MTT; read-out: IC50. In outline: as §1
In the case of `COc1ccc2cc1Oc1ccc(cc1)C[C@H]1c3cc(c(OC)cc3CCN1C)Oc1c(OCC(O)CN3CCCC(C)C3)c(OC)cc3c1[C@H](C2)N(C)CC3` (stereo partly shown) [BS-FC-410], the IC50 turned out to be 1.13 µg/mL (≈ 1.48 µM).

The assay is the same for the next values; noted with them: Homo sapiens; H9, 72 h, MTT; read-out: IC90.
Turning to `COc1ccc2cc1Oc1ccc(cc1)C[C@H]1c3cc(c(OC)cc3CCN1C)Oc1c(OCC(O)CN3CCCC(C)C3)c(OC)cc3c1[C@H](C2)N(C)CC3` (stereo partly shown) [BS-FC-410], the IC90 came to 2 µg/mL (≈ 2.62 µM).

The test system of another assay is Jurkat (acute lymphoblastic leukemia) cells. Put plainly: MTT cell growth inhibition, leukemia cells. To be noted: Homo sapiens; Jurkat, 72 h, MTT; read-out: IC50. In kind it is cell-based, human. In short, it runs like this:
as §1
As to `COc1ccc2cc1Oc1ccc(cc1)C[C@H]1c3cc(c(OC)cc3CCN1C)Oc1c(OCC(O)CN3CCCC(C)C3)c(OC)cc3c1[C@H](C2)N(C)CC3` (stereo partly shown) [BS-FC-410], the IC50 amounted to 0.64 µg/mL (≈ 0.838 µM).

Still in this assay, the particulars now being: Homo sapiens; Jurkat, 72 h, MTT; read-out: IC90.
For the molecule `COc1ccc2cc1Oc1ccc(cc1)C[C@H]1c3cc(c(OC)cc3CCN1C)Oc1c(OCC(O)CN3CCCC(C)C3)c(OC)cc3c1[C@H](C2)N(C)CC3` (stereo partly shown) [BS-FC-410], the IC90 was 1.61 µg/mL (≈ 2.11 µM).

A further assay concerns Kasumi-1 (acute myeloid leukemia M2 type) cells. Nature of the assay: MTT cell growth inhibition, leukemia cells. The assay is classed as cell-based, human. The conditions noted are these: Homo sapiens; Kasumi-1, 72 h, MTT; read-out: IC50. In outline:
as §1
For `COc1ccc2cc1Oc1ccc(cc1)C[C@H]1c3cc(c(OC)cc3CCN1C)Oc1c(OCC(O)CN3CCCC(C)C3)c(OC)cc3c1[C@H](C2)N(C)CC3` (stereo partly shown) [BS-FC-410], the concentration for half-maximal inhibition (IC50) came out at 0.84 µg/mL (≈ 1.1 µM).

The same assay, now with this note: Homo sapiens; Kasumi-1, 72 h, MTT; read-out: IC90.
On to `COc1ccc2cc1Oc1ccc(cc1)C[C@H]1c3cc(c(OC)cc3CCN1C)Oc1c(OCC(O)CN3CCCC(C)C3)c(OC)cc3c1[C@H](C2)N(C)CC3` (stereo partly shown) [BS-FC-410], for which the 90% effect concentration (IC90) is 1.86 µg/mL (≈ 2.43 µM).

The next assay concerns RPMI 8226 (multiple myeloma) cells. Nature of the assay: MTT cell growth inhibition, multiple myeloma cells. In kind it is cell-based, human. To be noted: Homo sapiens; RPMI 8226, 72 h, MTT; read-out: IC50. In short, it runs like this:
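RPMI 8226 myeloma cells, 6000 per well in RPMI-1640 with 10% FBS, were dosed with fangchinoline derivatives at several concentrations the day after seeding. Incubation ran 72 h at 37° C in 5% CO2, then viable cells were measured by MTT.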
With `COc1ccc2cc1Oc1ccc(cc1)C[C@H]1c3cc(c(OC)cc3CCN1C)Oc1c(OCC(O)CN3CCCC(C)C3)c(OC)cc3c1[C@H](C2)N(C)CC3` (stereo partly shown) [BS-FC-410], the IC50 was less than 0.125 µg/mL.

The same assay, now with this note: Homo sapiens; RPMI 8226, 72 h, MTT; read-out: IC90.
As to `COc1ccc2cc1Oc1ccc(cc1)C[C@H]1c3cc(c(OC)cc3CCN1C)Oc1c(OCC(O)CN3CCCC(C)C3)c(OC)cc3c1[C@H](C2)N(C)CC3` (stereo partly shown) [BS-FC-410], the concentration for an effect of 90% (IC90) stood at 0.25 µg/mL (≈ 0.327 µM).

Another assay relates to CNE (nasopharyngeal carcinoma) cells. Put plainly: MTT cell growth inhibition, solid tumor cells. In kind it is cell-based, human. The conditions noted are these: Homo sapiens; CNE, 72 h, MTT; read-out: IC50. In short, it runs like this:
(§2)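 Exposure lasted 72 h, following 24 h growth of 6000 cells/well in DMEM high glucose containing 10% FBS at 37 °C in 5% CO2; endpoint was MTT-based viable cell concentration across tested compound concentrations.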
As for `COc1ccc2cc1Oc1ccc(cc1)C[C@H]1c3cc(c(OC)cc3CCN1C)Oc1c(OCC(O)CN3CCCC(C)C3)c(OC)cc3c1[C@H](C2)N(C)CC3` (stereo partly shown) [BS-FC-410], the half-inhibitory concentration (IC50) came out at 1.1 µg/mL (≈ 1.44 µM).

The assay is the same for the next values; noted with them: Homo sapiens; CNE, 72 h, MTT; read-out: IC90.
`COc1ccc2cc1Oc1ccc(cc1)C[C@H]1c3cc(c(OC)cc3CCN1C)Oc1c(OCC(O)CN3CCCC(C)C3)c(OC)cc3c1[C@H](C2)N(C)CC3` (stereo partly shown) [BS-FC-410]: the 90% effect concentration (IC90) stood at 2.4 µg/mL (≈ 3.14 µM).

In the next assay the test system is CaEs-17 (esophageal cancer) cells. Put plainly: MTT cell growth inhibition, solid tumor cells. In kind it is cell-based, human. To be noted: Homo sapiens, CaEs17; CaEs-17, 72 h, MTT; read-out: IC50. In outline:
as §2
In the case of `COc1ccc2cc1Oc1ccc(cc1)C[C@H]1c3cc(c(OC)cc3CCN1C)Oc1c(OCC(O)CN3CCCC(C)C3)c(OC)cc3c1[C@H](C2)N(C)CC3` (stereo partly shown) [BS-FC-410], the IC50 is 0.76 µg/mL (≈ 0.995 µM).

Staying with this assay, now noted: Homo sapiens, CaEs17; CaEs-17, 72 h, MTT; read-out: IC90.
`COc1ccc2cc1Oc1ccc(cc1)C[C@H]1c3cc(c(OC)cc3CCN1C)Oc1c(OCC(O)CN3CCCC(C)C3)c(OC)cc3c1[C@H](C2)N(C)CC3` (stereo partly shown) [BS-FC-410]: the IC90 amounted to 4.3 µg/mL (≈ 5.63 µM).

In another assay the test system is PANC-1 (pancreatic cancer) cells. Nature of the assay: MTT cell growth inhibition, solid tumor cells. The assay is classed as cell-based, human. To be noted: Homo sapiens; PANC-1, 72 h, MTT; read-out: IC50. In outline:
as §2
As for `COc1ccc2cc1Oc1ccc(cc1)C[C@H]1c3cc(c(OC)cc3CCN1C)Oc1c(OCC(O)CN3CCCC(C)C3)c(OC)cc3c1[C@H](C2)N(C)CC3` (stereo partly shown) [BS-FC-410], the IC50 came to 1.11 µg/mL (≈ 1.45 µM).

Staying with this assay, now noted: Homo sapiens; PANC-1, 72 h, MTT; read-out: IC90.
Turning to `COc1ccc2cc1Oc1ccc(cc1)C[C@H]1c3cc(c(OC)cc3CCN1C)Oc1c(OCC(O)CN3CCCC(C)C3)c(OC)cc3c1[C@H](C2)N(C)CC3` (stereo partly shown) [BS-FC-410], the IC90 is 3.77 µg/mL (≈ 4.93 µM).

The assay is the same for the next values; noted with them: relative to fangchinoline, Table 2.
Turning to `COc1ccc2cc1Oc1ccc(cc1)C[C@H]1c3cc(c(OC)cc3CCN1C)Oc1c(OCC(O)CN3CCCC(C)C3)c(OC)cc3c1[C@H](C2)N(C)CC3` (stereo partly shown) [BS-FC-410], the “anti-PANC-1 activity increase over fangchinoline” value is recorded as roughly 3 fold.

(Values after US9328122B2, “7-substituted Hanfangichin B derivative, and preparation method and use thereof” (HANGZHOU BENSHENG PHARMACEUTICAL CO., LTD., priority 2012, dated 2016).)
